Experimental findings from patent US20060160869A1, “Ubiquitin ligase inhibitors” (Rigel Pharmaceuticals, Inc., priority 2005, published 2006) are described below.

The target of data set [1] is E3 (His-APC11/APC2, "APC") (Homo sapiens, UniProt Q9NYG5+Q9UJX6). Put plainly: Plate-based E3 ligase assay (APC FLAG), auto-ubiquitination. The data set is classed as biochemical. As to the method: (§1) E3 (His-APC11/APC2—“APC”) auto-ubiquitination was measured as described in U.S. patent application Ser. No. 09/826,312 (Publication No. US-2002-0042083-A1), which is incorporated herein in its entirety. Details of the protocol are described below. Activity in the presence of the compound was determined relative to a parallel control in which only DMSO was added. Values of the IC50 were typically determined using 6 or 8 different concentrations of the compound, although as few as 2 concentrations may be used to approximate the IC50 value.
E3 (His-APC11/APC2, "APC"), sequence (Q9NYG5 whole entry): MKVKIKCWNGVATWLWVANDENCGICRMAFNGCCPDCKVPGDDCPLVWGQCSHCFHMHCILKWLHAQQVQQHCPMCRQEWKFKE
E3 (His-APC11/APC2, "APC"), sequence (Q9UJX6 whole entry): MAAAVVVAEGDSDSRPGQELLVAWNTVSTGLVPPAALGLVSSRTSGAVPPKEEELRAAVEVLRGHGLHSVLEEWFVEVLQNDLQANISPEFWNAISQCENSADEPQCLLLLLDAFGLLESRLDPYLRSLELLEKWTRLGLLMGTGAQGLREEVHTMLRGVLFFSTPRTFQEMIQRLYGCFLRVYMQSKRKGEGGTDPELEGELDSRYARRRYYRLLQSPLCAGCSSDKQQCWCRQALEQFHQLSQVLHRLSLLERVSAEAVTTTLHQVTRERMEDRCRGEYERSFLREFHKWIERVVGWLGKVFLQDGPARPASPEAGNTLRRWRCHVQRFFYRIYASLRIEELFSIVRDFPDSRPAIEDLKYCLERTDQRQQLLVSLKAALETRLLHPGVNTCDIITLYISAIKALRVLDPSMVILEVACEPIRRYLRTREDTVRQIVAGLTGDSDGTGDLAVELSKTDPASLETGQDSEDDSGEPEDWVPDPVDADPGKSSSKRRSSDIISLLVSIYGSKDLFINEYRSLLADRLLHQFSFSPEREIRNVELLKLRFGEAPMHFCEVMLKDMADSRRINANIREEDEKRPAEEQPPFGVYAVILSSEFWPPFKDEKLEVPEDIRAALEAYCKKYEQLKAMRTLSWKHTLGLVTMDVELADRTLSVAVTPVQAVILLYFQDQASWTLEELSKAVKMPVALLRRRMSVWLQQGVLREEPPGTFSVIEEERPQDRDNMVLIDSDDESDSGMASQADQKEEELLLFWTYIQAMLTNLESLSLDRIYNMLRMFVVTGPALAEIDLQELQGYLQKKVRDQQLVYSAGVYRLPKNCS
(§2) Nickel-coated 96-well plates (Pierce 15242) were blocked for 1 hour with 100 μl of blocking buffer at room temperature. The plates were washed 4 times with 225 μl of 1×PBS and 80 μl of the reaction buffer were added that contained 100 ng/well of Flag-ubiquitin. To this, 10 μl of the test compound diluted in DMSO were added. After the test compound was added, 10 μl of E1 (human), E2 (Ubch5c), and APC in Protein Buffer was added to obtain a final concentration of 5 ng/well of E1, 20 ng/well: of E2 and 100 ng/well of APC. The plate were shaken for 10 minutes and incubated at room temperature for 1 hour. After incubation, the plates were washed 4 times with 225 μl of 1×PBS and 100 μl/well of Antibody Mix were added to each well. The plates were incubate at room temperature for another hour after which they were washed 4 times with 225 μl of 1×PBS and 100 μl/well of Lumino substrate were added to each well. The luminescence was measured by using a BMG luminescence microplate reader.
APC Plate/gel is Anaphase Promoting Complex. This protein also belongs to E3 RING finger ligase group.

For the next data set, the system named is DLD-1 cells. The data set is described as follows: PAD anti-proliferation assay, DLD-1. The data set is classed as cell-based. Particulars: Homo sapiens, 48 hours.
The target of a further data set is MDM2 (Homo sapiens, UniProt Q00987). Put plainly: Plate-based E3 ligase assay, MDM2 autoubiquitination (MDM2-FLAG). The data set is classed as biochemical. The method, then: as §1, §2
MDM2, sequence (Q00987 whole entry): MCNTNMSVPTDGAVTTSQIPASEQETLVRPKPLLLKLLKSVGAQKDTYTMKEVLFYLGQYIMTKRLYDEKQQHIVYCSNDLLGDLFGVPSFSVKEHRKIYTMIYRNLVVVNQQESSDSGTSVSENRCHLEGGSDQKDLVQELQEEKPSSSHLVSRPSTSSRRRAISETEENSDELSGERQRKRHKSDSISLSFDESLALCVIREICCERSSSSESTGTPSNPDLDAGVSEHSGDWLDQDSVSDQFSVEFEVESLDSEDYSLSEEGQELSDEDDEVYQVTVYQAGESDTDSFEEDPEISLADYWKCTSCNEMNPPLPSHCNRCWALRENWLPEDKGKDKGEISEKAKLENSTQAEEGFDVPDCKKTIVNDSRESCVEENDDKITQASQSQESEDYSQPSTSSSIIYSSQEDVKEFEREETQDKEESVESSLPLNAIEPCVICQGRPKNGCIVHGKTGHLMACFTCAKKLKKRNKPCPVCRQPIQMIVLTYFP
In similar manner, autoubiquitination of the E3 MDM2 was determined (MDM2-FLAG). Further instruction in such assays can be found in U.S. patent application Ser. No. 10/108,767 (Publication No. US-2003-0104474 A1), which is incorporated herein in its entirety.
hMDM2 Plate/Gel is Mouse double minute 2, human homolog. This protein belongs to the E3 RING finger ligase group.

Data set [2] relates to GADD45 promoter (DNA damage response reporter). Put plainly: H1299 GADD45 reporter system. It counts as cell-based. Particulars: human; p53 −ve cell type; maximal fold induction over DMSO control; read-out: Fold Induction, H1299GADD45. An excerpt:
(§3) Stable lines of U2OS (osteosarcoma; Wild-type p53 positive), HCT116 (colorectal carcinoma; Wild-type p53 positive) and H1299 (lung non-small cell carcinoma; p53 null) carrying p53-dependent transcriptional regulatory element linked to a Luciferase reporter gene and H1299 carrying a 5′-regulatory region of GADD45 linked to Luciferase were used.
(§4) Day 1: Cells were re-plated into 96-well plates at suitable densities to make 50-60% confluence on Day 2. The plating densities are as follows: 7.5×10^3 cells/well (or 2.5×10^4 cells/cm^2) for U2OS; 1.5×10^4 cells/well (or 5.0×10^4 cells/cm^2) for HCT116; and 1.0×10^4 cells/well (or 3.3×10^4 cells/cm^2) for H1299.
(§5) Day 2: The compounds or control drugs were diluted in dimethyl sulfoxide (DMSO) and added to the wells to create 6-points/2-fold serial dilution (20, 10, 5, 2.5, 1.25, 0.625 and 0 μM) for each compound. The DMSO concentration was adjusted to 0.2% in all wells.
(§6) Day 3: Twenty to 24 hours after compound addition, cells were twice washed with PBS and lysed with Glo-lysis buffer (100 μl/well, Promega; Cat#E2661). Plates were subjected to gentle agitation on a table-top shaker for 5 minutes at room temperature. Fifty μl of lysate was transferred to an assay plate to test for luciferase activity and mixed with 2× assay buffer (Promega; Cat# E1483). The reaction mixture was left at room temperature for 2 minutes and then luminescence was measure by a luminometer (Victor™, 1420 Multilabel Counter, Wallac).
(§7) Data analysis was done on Excel software (Microsoft). Values in Table 4 represent maximal fold induction over negative control (DMSO only) and are the mean of at least duplicate experiments.
H1299 GADD45 Reporter System is a system in which GADD45 is induced in p53-null cells in response to DNA damage. This cell line expresses the 5′-regulatory region of the GADD45 gene. This assay provides a way to rule out the possibility of DNA damage due to the compounds.

Data set [3] concerns p53 reporter system in p53 null H1299 cell line. Put plainly: p53-dependent transcription reporter assay, H1299RE. It counts as cell-based. Particulars: p53 −ve cell type; maximal fold induction over DMSO control.
From the text: as §3, §4, §5, §6, §7
H1299RE is p53 null […] cell line containing p53 reporter system. Numbers indicate the selectivity of the compound with smaller number being higher selectivity.
In general terms: Reporter assays use an easily measured gene product as a stand-in for the process of interest.

Another data set deals with E2 (Ubch5c) (Homo sapiens, UniProt P61077). The data set is described as follows: E2 ligase assay, E2 auto-ubiquitination. It counts as biochemical. Particulars: Table 2. The method, then:
E2 (Ubch5c) auto-ubiquitination was measured as described in U.S. patent application Ser. No. 09/826,312 (Publication No. US-2002-0042083-A1), which is incorporated herein in its entirety. Details of the protocol are described below. Activity in the presence of the test compound was determined relative to a parallel control in which only DMSO was added. The IC50 values were typically determined using 6 or 8 different concentrations of compound, although as few as 2 concentrations may be used to approximate IC50 values.
Corning 96-well plates (Corning 3650) were blocked with 100 μl of Blocking Buffer for 1 hour at room temperature. The plates were washed for 4 times with 225 μl of 1×PBS and 80 μl of the reaction buffer were added that contained 100 ng/well of Flag-ubiquitin. To this, 10 μl of the test compound diluted in DMSO were added. After the test compound was added, 10 μl of E1 (human) and E2 (Ubch5c) in Protein Buffer were added to obtain a final concentration of 5 ng/well of E1 and 20 ng/well of E2. The plates were shaken for 10 minutes and incubated at room temperature for 1 hour. After incubation, the reaction was stopped by adding 25 μl of loading buffer (non-reducing) per well and the plates were heated at 95° C. for 5 minutes. An aliquot of each well was run on a 10% NugePage Gel and analyzed by Western Blot using the antibody mix and Lumino substrate described below. The luminescence was measured using a BMG luminescence microplate reader.

The mark [4] stands for this setting: Table 3, read-out: APC Plate IC50.
[5] abbreviates: Table 3, read-out: MDM2 Plate IC50.

Usually IC50 stands for the concentration that gives 50% inhibition.

Molecules are shown by their SMILES. Where two headings read alike, the source gives them in different places.

E2 (Ubch5c), sequence (P61077 whole entry): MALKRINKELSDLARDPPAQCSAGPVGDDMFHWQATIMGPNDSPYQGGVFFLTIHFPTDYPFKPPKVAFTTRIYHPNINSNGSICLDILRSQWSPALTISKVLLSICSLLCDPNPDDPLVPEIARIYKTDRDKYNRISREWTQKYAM

On to `O=C(c1ccc(CN(Cc2cccc(OC(F)(F)F)c2)c2nc(-c3ccccc3)cs2)cc1)N1CCNCC1` [compound 275], for which the 50% inhibitory concentration (IC50) in data set [1] (Table 2, read-out: APC IC50) lay within 1 to 20 µM; in data set [1] (setting [4]), 1 to 20 µM; with DLD-1 cells, 1 to 20 µM; at MDM2 (Table 2, read-out: MDM2 IC50) it was 1 to 20 µM; at MDM2 (setting [5]) it was 1 to 20 µM.

Regarding `O=C(c1ccc(CN(Cc2cccc(OC(F)(F)F)c2)c2nc(-c3ccc4ccccc4c3)cs2)cc1)N1CCNCC1` [compound 282, 4-(2-naphthyl)-N-[4-(piperazin-1-ylcarbonyl)benzyl]-N-[3-(trifluoromethoxy)benzyl]-1,3-thiazol-2-amine], the concentration for half-maximal inhibition (IC50) in data set [1] (Table 2, read-out: APC IC50) lay within 1 to 20 µM; in data set [1] (setting [4]) it was 1 to 20 µM; with DLD-1 cells it was 1 to 20 µM; at MDM2 (Table 2, read-out: MDM2 IC50), 1 to 20 µM; at MDM2 (setting [5]), 1 to 20 µM.

Consider `COc1cccc(-c2csc(N(Cc3ccc(C(=O)N4CCNCC4)cc3)Cc3cccc(OC(F)(F)F)c3)n2)c1` [compound 351], for which the half-maximal inhibitory concentration (IC50) in data set [1] (Table 2, read-out: APC IC50) was 1 to 20 µM; in data set [1] (setting [4]), 1 to 20 µM; at MDM2 (Table 2, read-out: MDM2 IC50) it was 1 to 20 µM; on MDM2 (setting [5]) it was 1 to 20 µM; against E2 (Ubch5c), not below 20 µM. Moreover, in data set [2], the fold induction is not above 1.5. For the same compound, the “Fold Induction of p53 activity, H1299RE” value in data set [3] is recorded as “c (c means 1.5 or less)”.

`COc1cccc(-c2csc(N(CCOc3ccccc3)Cc3ccc(C(=O)N4CCNCC4)cc3)n2)c1` [compound 352]: the IC50 in data set [1] (Table 2, read-out: APC IC50) was 1 to 20 µM; in data set [1] (setting [4]) it was not below 20 µM; at MDM2 (Table 2, read-out: MDM2 IC50) it was 1 to 20 µM; on MDM2 (setting [5]), 1 to 20 µM; on E2 (Ubch5c), not below 20 µM. In addition, the fold induction in data set [2] was not above 1.5. The “Fold Induction of p53 activity, H1299RE” value in data set [3] is given as “c (c means 1.5 or less)”.

Regarding `O=C(c1ccc(CN(CCOc2ccccc2)c2nc(-c3ccc(Cl)c(Cl)c3)cs2)cc1)N1CCNCC1` [compound 360], the IC50 in data set [1] (Table 2, read-out: APC IC50) was 1 to 20 µM; in data set [1] (setting [4]), 1 to 20 µM; in the data set with DLD-1 cells, 1 to 20 µM; on MDM2 (Table 2, read-out: MDM2 IC50), 1 to 20 µM; at MDM2 (setting [5]), less than 1 µM; at E2 (Ubch5c), not below 20 µM. Moreover, the fold induction in data set [2] is not above 1.5. Further, the “Fold Induction of p53 activity, H1299RE” value in data set [3] is recorded as “c (c means 1.5 or less)”.

Take `COc1cccc(CN(Cc2ccc(C(=O)N3CCNCC3)cc2)c2nc(-c3ccc(Br)cc3)cs2)c1OC` [compound 353]: the IC50 in data set [1] (Table 2, read-out: APC IC50) is 1 to 20 µM; in data set [1] (setting [4]), 1 to 20 µM; on MDM2 (Table 2, read-out: MDM2 IC50), 1 to 20 µM; at MDM2 (setting [5]), 1 to 20 µM; at E2 (Ubch5c), not below 20 µM. Besides, in data set [2], the fold induction is not above 1.5. Moreover, the “Fold Induction of p53 activity, H1299RE” value in data set [3] is “c (c means 1.5 or less)”.
